Data on six molecules can be found in US12304970B2, “Nuclear localization signals, compositions formed therefrom, and methods of use thereof for delivery of cargo to the nucleus” (Yale University, priority 2018, dated 2025).

One test deals with DLD1 colon cancer cells. As to the kind of experiment: Protein L immunostain of variant 13 nuclear penetration with nuclear import inhibitors, DLD1 cells. The test is classed as cell-based. The note with it: 10 μM variant 13 co-incubated with 0, 10, 25, or 50 μM inhibitor. As to the method:
(§1) For all experiments, cells were cultivated overnight to allow for attachment, followed by pretreatment with either control medium (absence of inhibitor), or medium containing inhibitor for durations previously-reported in the literature (see Table 1, below).
(§2) For endocytosis inhibition experiments, cells were cultivated in serum-free medium containing 1% v/v BSA to deplete endogenous serum levels. Following preincubation with inhibitors, cells were treated with either control medium or 10 μM variant 13, and the same dose of small molecule inhibitor for a further 30 minutes. For all experiments, cells were washed thrice, followed by immediate fixation with pre-chilled ice-cold ethanol. Subsequently, treated cells were probed using a protein L immunodetection approach to probe variant 13 nuclear uptake (Rattray et al., Biochem Biophys Res Commun 496, 858-864 (2018)). All monolayers were immediately imaged following color development on an Evos Fl microscope.
(§3) DLD-1 and A549 cells were treated with 10 μM variant 13 co-incubated with 0, 10, 25, or 50 μM concentrations of ivermectin. Relative intensity of protein L nuclear staining as compared to amount of stain in cells treated without ivermectin was also quantified by ImageJ.
(§4) DLD-1 cells and A549 cells were treated with 10 μM variant 13 co-incubated with 0, 10, 25, or 50 μM concentrations of importazole and then immunostained for protein L.
(§5) DLD-1 cells and A549 cells were treated with 10 μM variant 13 co-incubated with 0, 10, 25, or 50 μM concentrations of mifepristone and then immunostained for protein L.

The subject of another test is A549 lung cancer cells. Description: Protein L immunostain of variant 13 nuclear penetration with nuclear import inhibitors, A549 cells. Type of test: cell-based. The note with it: 10 μM variant 13 co-incubated with 0, 10, 25, or 50 μM inhibitor. The method, then: as §1, §2, §3, §4, §5
Test [1] has as its system DLD1 cells. As to the kind of experiment: SLE sera nuclear import with nuclear import inhibitors. As to conditions: pre- and co-treatment with inhibitor. Type of test: cell-based. The method, then: DLD1 cells were pre-treated with either control media, or media containing nuclear import inhibitors for four hours. Subsequent co-treatment with inhibitor and patient SLE serum (diluted 1:50) was performed for one hour at 37° C. Following treatment, cells were fixed, blocked and probed with an alkaline-phosphatase anti-human IgG primary antibody overnight (Fisher Scientific). Cell monolayers were washed, and color developed using NBT/BCIP reagent (Fisher Scientific) for the same duration across all experiments. Following chromogen color development, all monolayers were washed, and brightfield images acquired immediately on an Evos Fl microscope.

In a further test the test system is DLD1 cancer cells. As to the kind of experiment: Uptake of rhodamine-labeled variant 13 into live DLD1 cells. The test is classed as cell-based. As to conditions: 50 μM importazole. As to the method: Live DLD1 cancer cells were treated with control or rhodamine-labeled variant 13 (Rh-variant 13)+/−50 μM importazole and were then visualized under light and fluorescence microscopy.

In test [2] the test system is cell nuclei. The note with it: known anti-DNA autoantibodies; cited from earlier work.
In a further test the test system is MCF7 breast cancer cells. As to the kind of experiment: Uptake of rhodamine-labeled variant 13 into live MCF7 cells. The test is classed as cell-based. As to conditions: 50 μM ivermectin. As to the method:
Live MCF7 breast cancer cells were treated with control or rhodamine-labeled variant 13 (Rh-variant 13)+/−50 μM ivermectin and were then visualized under light and fluorescence microscopy. Ivermectin inhibited cellular/nuclear uptake of Rh-variant 13.

Test [3] has as its system DLD1 cells. Description: Nuclear penetration of scleroderma autoantibody SSC and effect of ivermectin. The test is classed as cell-based. The source says: In addition to SLE, cell-penetrating autoantibodies are detected in other autoimmune diseases such as scleroderma. […] SSC was expressed in and purified from HEK293T cells. […] Ivermectin inhibited the nuclear uptake of SSC, confirming that ivermectin can modulate the nuclear-penetrating activity of autoantibodies from multiple autoimmune diseases.

The subject of test [4] is cell nuclei. Description: Nuclear penetration of humanized 3E10 variants compared with 3E10 (D31N) di-scFv. The test is classed as cell-based. As to conditions: for Nuclear localizing?: humanized 3E10 variants. The source says:
A range of humanized 3E10 variants were generated with subtle differences in framework and CDR sequences.

A further test deals with T1, Importin-β1 (KPNB1) (Homo sapiens, UniProt Q14974).
T1 construct: endogenous in cells; host or cells: DLD1 cells
Description: Variant 13 nuclear penetration after siRNA knockdown of importin β1 in DLD1 cells. The test is classed as cell-based. As to conditions: 10 μM variant 13 for 30 minutes, n=100 cells per treatment. The method, then: Importin-β1 (KPNB1) knockdown in DLD1 cells were generated using control (D-001206-14-05) and KPNB1 (importin β1, M-017523-01-0005) siRNA (Dharmacon). DLD1 cells were seeded into 24-well (western blot) or 96-well plates (cell penetration assays) overnight. Cell monolayers were transfected with siRNA, followed by media replacement at 24 hours, and evaluation at multiple time points post-transfection. Importin (31 expression was then evaluated by western blotting of cell lysates.
Knockdown of importin β1 in DLD1 cells by siRNA was next performed to further probe the role of this pathway in modulating variant 13 nuclear localization.

Entries after “also recorded” stand apart in the source; their conditions may differ. Read-outs that look alike come from different tables or passages of the source.

T1 sequence (Q14974 whole entry): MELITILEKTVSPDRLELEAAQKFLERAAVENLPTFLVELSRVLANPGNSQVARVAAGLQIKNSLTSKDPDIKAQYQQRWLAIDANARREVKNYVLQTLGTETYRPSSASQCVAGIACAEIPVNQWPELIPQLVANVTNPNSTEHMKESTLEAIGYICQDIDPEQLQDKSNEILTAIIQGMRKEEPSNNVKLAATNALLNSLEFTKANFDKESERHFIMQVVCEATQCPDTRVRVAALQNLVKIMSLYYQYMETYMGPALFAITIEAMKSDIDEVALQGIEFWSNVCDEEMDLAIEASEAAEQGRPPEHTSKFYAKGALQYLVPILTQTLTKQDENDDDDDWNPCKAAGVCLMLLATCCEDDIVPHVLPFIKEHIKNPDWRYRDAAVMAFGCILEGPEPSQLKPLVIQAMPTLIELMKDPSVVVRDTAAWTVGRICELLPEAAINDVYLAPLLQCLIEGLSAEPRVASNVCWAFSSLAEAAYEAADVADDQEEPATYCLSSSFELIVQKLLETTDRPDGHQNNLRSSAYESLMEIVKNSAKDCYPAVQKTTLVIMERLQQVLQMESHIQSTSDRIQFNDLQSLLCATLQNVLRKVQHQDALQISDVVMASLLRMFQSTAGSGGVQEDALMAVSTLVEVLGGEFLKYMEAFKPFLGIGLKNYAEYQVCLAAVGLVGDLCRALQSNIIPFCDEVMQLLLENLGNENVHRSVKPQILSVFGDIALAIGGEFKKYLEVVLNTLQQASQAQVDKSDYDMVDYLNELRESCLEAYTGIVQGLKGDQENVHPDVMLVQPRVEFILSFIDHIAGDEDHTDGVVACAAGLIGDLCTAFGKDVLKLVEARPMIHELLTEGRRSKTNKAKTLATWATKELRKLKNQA

In the case of `CC#C[C@]1(O)CC[C@H]2[C@@H]3CCC4=CC(=O)CCC4=C3[C@@H](c3ccc(N(C)C)cc3)C[C@@]21C` [mifepristone], the “nuclear penetration by variant 13” value in the test with DLD1 colon cancer cells and in the test on A549 lung cancer cells was “reduction” throughout. Besides, the “nuclear uptake of ANAs in SLE-19” value in the test with DLD1 cells [1] is “inhibit nuclear uptake of ANAs in SLE-19 in a dose-dependent manner”.

As for `CC(Nc1nc(N2CCCC2)nc2ccccc12)c1ccccc1` (stereo not drawn) [importazole], the “nuclear penetration by variant 13” value with DLD1 colon cancer cells and in the test on A549 lung cancer cells was “reduction” each time. The “nuclear uptake of rhodamine-labeled variant 13” value with DLD1 cancer cells is reported as “inhibited”. Further, in the test with DLD1 cells [1], the “nuclear uptake of ANAs in SLE-19” value is on record as “inhibit nuclear uptake of ANAs in SLE-19 in a dose-dependent manner”.

In the case of “3E10: murine lupus anti-DNA monoclonal antibody produced by ATCC Accession No. PTA 2439 hybridoma [Variant 3E10]”, in the test on cell nuclei [2], the “Nuclear localizing?” value is given as “Yes”.

Take ivermectin: the “nuclear penetration by variant 13” value in the test with DLD1 colon cancer cells and in the test on A549 lung cancer cells was “dose-dependent reduction” in each case. Moreover, the “cellular/nuclear uptake of rhodamine-labeled variant 13” value in the test with MCF7 breast cancer cells was “inhibited”. Also, in the test with DLD1 cells [1] (serum diluted 1:50), the “nuclear staining / nuclear uptake of ANAs in SLE-4, 8, 9, and 19” value is reported as “reduced the nuclear staining; also recorded: blocked”. Also, in the test with DLD1 cells [3], the “nuclear uptake of SSC” value is “inhibited”.

B1: variant 10: humanized 3E10 variant, SEQ ID NOS: 14, 22, and 32 (protein)
chain 1: EVQLVESGGGLVQPGGSLRLSCAASGFTFSNYGMHWVRQAPGKGLEWVSYISSSSSTIYYADSVKGRFTISRDNAKNSLYLQMNSLRAEDTAVYYCARRGLLLDYWGQGTTVTVSS
chain 2: DIQMTQSPSSLSASVGDRVTITCRASKSVSTSSYSYMHWYQQKPGKAPKLLIKYASYLESGVPSRFSGSGSGTDFTLTISSLQPEDFATYYCQHSREFPWTFGQGTKVEIK
chain 3: DIQMTQSPSSLSASVGDRVTITCRASKSVSTSSYSYMHWYQQKPGKAPKLLIKYASYLESGVPSRFSGSGSGTDFTLTISSLQPEDFATYYCQHSREFPWTFGQGTKVEIKRADAAPGGGGSGGGGSGGGGSEVQLVESGGGLVQPGGSLRLSCAASGFTFSNYGMHWVRQAPGKGLEWVSYISSSSSTIYYADSVKGRFTISRDNAKNSLYLQMNSLRAEDTAVYYCARRGLLLDYWGQGTTVTVSSASTKGPSVFPLAPLESSGSDIQMTQSPSSLSASVGDRVTITCRASKSVSTSSYSYMHWYQQKPGKAPKLLIKYASYLESGVPSRFSGSGSGTDFTLTISSLQPEDFATYYCQHSREFPWTFGQGTKVEIKRADAAPGGGGSGGGGSGGGGSEVQLVESGGGLVQPGGSLRLSCAASGFTFSNYGMHWVRQAPGKGLEWVSYISSSSSTIYYADSVKGRFTISRDNAKNSLYLQMNSLRAEDTAVYYCARRGLLLDYWGQGTTVTVSS
Take B1: in the test with cell nuclei [4], the “nuclear penetration compared to murine 3E10 (D31N) di-scFv prototype” value is on record as “penetrated nuclei very well” and the “Nuclear localizing?” value is reported as “Yes”.

B2: variant 13: humanized 3E10 variant, SEQ ID NOS: 17, 23, and 35, expressed in CHO cells (protein)
chain 1: EVQLVESGGGLVQPGGSLRLSCAASGFTFSNYGMHWVRQAPGKGLEWVSYISSGSSTIYYADSVKGRFTISRDNAKNSLYLQMNSLRAEDTAVYYCARRGLLLDYWGQGTTVTVSS
chain 2: DIQMTQSPSSLSASLGDRATITCRASKTVSTSSYSYMHWYQQKPGQPPKLLIKYASYLESGVPSRFSGSGSGTDFTLTISSLQPEDAATYYCQHSREFPWTFGGGTKVEIK
chain 3: DIQMTQSPSSLSASLGDRATITCRASKTVSTSSYSYMHWYQQKPGQPPKLLIKYASYLESGVPSRFSGSGSGTDFTLTISSLQPEDAATYYCQHSREFPWTFGGGTKVEIKRADAAPGGGGSGGGGSGGGGSEVQLVESGGGLVQPGGSLRLSCAASGFTFSNYGMHWVRQAPGKGLEWVSYISSGSSTIYYADSVKGRFTISRDNAKNSLYLQMNSLRAEDTAVYYCARRGLLLDYWGQGTTVTVSSASTKGPSVFPLAPLESSGSDIQMTQSPSSLSASLGDRATITCRASKTVSTSSYSYMHWYQQKPGQPPKLLIKYASYLESGVPSRFSGSGSGTDFTLTISSLQPEDAATYYCQHSREFPWTFGGGTKVEIKRADAAPGGGGSGGGGSGGGGSEVQLVESGGGLVQPGGSLRLSCAASGFTFSNYGMHWVRQAPGKGLEWVSYISSGSSTIYYADSVKGRFTISRDNAKNSLYLQMNSLRAEDTAVYYCARRGLLLDYWGQGTTVTVSS
Regarding B2, in the test with cell nuclei [4], the “nuclear penetration compared to murine 3E10 (D31N) di-scFv prototype” value is given as “penetrated nuclei very well” and the “Nuclear localizing?” value is given as “Yes”. For the same molecule, the “variant 13 nuclear signal in importin β1 knockdown cells compared to cells with intact importin β1” value with Importin-β1 (KPNB1) is “significant reduction”.
